Experimental data as given in patent publication US20140148470A1, “PYRIMIDINE COMPOUNDS FOR TREATING HAIRLOSS” (Boehringer Ingelheim International GmbH, priority 2012, published 2014).
Read-outs that look alike come from different tables or passages of the source.

Key:
human CRTH2 = molecular target: T1, human CRTH2 (Homo sapiens, UniProt Q9Y5Y4); assay: Measurement of Ca2+ mobilization in the human CRTH2-transfected L1.2 cell line; assay type: cell-based; conditions: PGD2-induced Ca2+ mobilization, human CRTH2-transfected L1.2 cells; compounds as yielded by solid phase synthesis, purity about 40 to 90%; read-out: Activity class (IC50)
T1 construct: expressed in transfected cells; host or cells: L1.2 cells (pEAK expression vector, puromycin selection)
T1 sequence (Q9Y5Y4 1-395): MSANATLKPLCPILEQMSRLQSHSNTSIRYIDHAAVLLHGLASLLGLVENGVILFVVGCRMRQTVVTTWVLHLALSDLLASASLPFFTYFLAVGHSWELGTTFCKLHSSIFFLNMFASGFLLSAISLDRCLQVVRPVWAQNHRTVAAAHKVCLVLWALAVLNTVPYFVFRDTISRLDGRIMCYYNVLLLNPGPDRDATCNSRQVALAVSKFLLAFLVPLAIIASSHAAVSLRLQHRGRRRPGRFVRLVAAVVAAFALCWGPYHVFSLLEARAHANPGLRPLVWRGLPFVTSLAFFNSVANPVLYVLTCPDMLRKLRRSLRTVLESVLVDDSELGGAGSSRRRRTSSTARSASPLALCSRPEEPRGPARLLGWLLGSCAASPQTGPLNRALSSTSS
Source text: [Preparation of Human CRTH2-Transfected L1. 2 Cell Line]
Human CRTH2 cDNA was amplified from human eosinophil cDNA with gene specific primers containing restriction sites for cloning into pEAK vector (Edge Bio Systems). The human CRTH2 cDNA was cloned into the mammalian expression vector pEAK. This expression plasmid ([…]) was transfected into L1. 2 cells, at a cell density of 1×10^7 cells/[…], by using electroporation apparatus (Gene Pulser II, BioRad) at 250V/[…]. One day after the transfection, puromycin (1 ug/mi, Sigma) was added into the cell culture plates. Two weeks after the transfection, grown cells were picked up for further growth.
[Measurement of Ca^2+ Mobilization in the Human CRTH2-Transfected L1. 2 Cell Line]
Ca^2+ loading buffer was prepared by mixing […] of Fluo-3AM (2 mM in DMSO, final 1 uM, Molecular Probes) and 10 µl of pluronic F-127 (Molecular Probes) and diluting the resulting mixture in 10 ml of Ca^2+ assay buffer (20 mM HEPES pH 7.6, 0.1% BSA, 1 mM probenecid, Hanks' solution). The CRTH2 transfected cells which were prepared in Example 1 were washed with PBS, resuspended in Ca2+ loading buffer at […] cells/ml, and incubated for 60 min at room temperature. After incubation, cells were washed and resuspended in Ca^2+ assay buffer, then dispensed into transparent-bottom 96-well plates (# 3631, Costar) at 2×10^5 cells/well. Cells were incubated with various concentrations of test compound for 5 minutes at room temperature. The emitted […] fluorescence was measured on FDSS6000, a Ca^2+-measurement apparatus (Hamamatsu Photonics, Hamamatsu, Japan).
The data corresponds to the compounds as yielded by solid phase synthesis and thus to levels of purity of about 40 to 90%. For practical reasons, the compounds are grouped in four classes of activity as follows: IC50=A (< or =) 10 nM<B (< or =) 100 nM<C (< or =) 500 nM<D. The compounds of the present invention also show excellent selectivity, and potent activity in Assays 2,3 and 4 described above.

[1] = tested on: explanted human hair follicles; conditions: cited from earlier work
CRTH2 (GPR44) = molecular target: T2, CRTH2 (GPR44) (Mus musculus, UniProt Q9Z2J6); conditions: topical to skin, cited from earlier work
T2 construct: host or cells: skin of wild-type mice, in vivo
T2 sequence (Q9Z2J6 1-382): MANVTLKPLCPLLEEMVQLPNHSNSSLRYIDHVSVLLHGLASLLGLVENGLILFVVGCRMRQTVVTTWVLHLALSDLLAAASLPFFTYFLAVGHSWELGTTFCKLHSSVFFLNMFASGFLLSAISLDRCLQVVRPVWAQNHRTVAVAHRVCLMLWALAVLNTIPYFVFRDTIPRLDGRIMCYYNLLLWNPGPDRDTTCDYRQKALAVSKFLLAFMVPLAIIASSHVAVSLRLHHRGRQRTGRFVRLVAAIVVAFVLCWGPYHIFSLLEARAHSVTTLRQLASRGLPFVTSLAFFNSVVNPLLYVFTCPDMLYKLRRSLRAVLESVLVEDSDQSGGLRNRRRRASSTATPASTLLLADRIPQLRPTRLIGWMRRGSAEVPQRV

`CN(C)c1nc(Cc2ccc(NC(=O)c3ccc4ccccc4c3)cc2)nc(Cl)c1CC(=O)O` [Example 1] showed an IC50 (human CRTH2) of under 10 nM.
In the case of `CN(C)c1nc(Cc2ccc(NC(=O)c3ccc4ccccc4c3)cc2)ncc1CC(=O)O` [Example 10], the IC50 (human CRTH2) is reported as under 10 nM.
In the case of `CN(C)c1nc(Cc2ccc(NC(=O)c3ccc(C(F)(F)F)cc3)cc2)nc(N(C)C)c1CC(=O)O` [Example 14], the IC50 (human CRTH2) is reported as under 10 nM.
`O=C(O)Cc1c(Cl)nc(Cc2ccc(NC(=O)c3ccc4ccccc4c3)cc2)nc1Cl` [Example 20] showed an IC50 (human CRTH2) of under 10 nM.
Work on `CN(C)c1nc(Cc2ccc(NC(=O)c3ccc4ccccc4c3)cc2)nc(Cl)c1Cc1nnn[nH]1` [Example 21] yielded an IC50 (human CRTH2) of under 10 nM.
`CN(C)c1nc(Cc2ccc(NC(=O)c3ccc4ccccc4c3)cc2)nc(Cl)c1CC(N)=O` [Example 22] showed an IC50 (human CRTH2) of 10 to 100 nM.
For `CCCCC[C@H](O)/C=C/[C@H]1C(=O)C[C@H](O)[C@@H]1C/C=C\CCCC(=O)O` [PGD2, prostaglandin D2], the hair growth [1] is listed as “inhibited hair growth”, the hair growth (CRTH2 (GPR44); CRTH2 (GPR44) knockout mice) is listed as “not” and the hair growth (CRTH2 (GPR44); wild-type mice) is listed as “inhibited hair growth”.
